The values below come from PubChem BioAssay (NCI).

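Growth conditions: 96-well plates. Treatment: test compound, 48 hours, 5 concentrations. Analysis: linear interpolation between bracketing concentrations; unreached endpoints set to highest concentration. GI50 marks 50% less growth. TGI marks complete inhibition of growth.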

Test systems include OVCAR-8 ovarian; SW-620 colon; SNB-75 CNS; HCC-2998 colon; NCI-H522 lung; SK-MEL-5 melanoma; UACC-62 melanoma; CCRF-CEM leukemia; NCI-H226 lung; TK-10 renal.
Common to all, as to assay: NCI-60 cell line screen, 48 h

For the compound `S=C1CNC(=S)CN1`, the TGI in the assay on OVCAR-8 ovarian, in the assay on SW-620 colon, with SNB-75 CNS, in the assay on HCC-2998 colon, with NCI-H522 lung and with SK-MEL-5 melanoma was more than 100 µM each time. Besides, the TGI with UACC-62 melanoma, with CCRF-CEM leukemia, with NCI-H226 lung and in the assay on TK-10 renal was more than 100 µM in each case.
Take `CC(C)[C@@H]1NC(=O)[C@]2(C)CSC(=N2)c2csc(n2)CNC(=O)C[C@@H](/C=C/CCS)OC1=O`: the GI50 in the assay on OVCAR-8 ovarian is 0.0858 µM; with SW-620 colon it was 0.227 µM; in the assay with SNB-75 CNS it was 0.0686 µM; in the assay with HCC-2998 colon, 0.089 µM; in the assay with NCI-H522 lung, 0.165 µM; in the assay on SK-MEL-5 melanoma, 0.0446 µM. Also, the GI50 in the assay with UACC-62 melanoma is 0.0477 µM; in the assay on CCRF-CEM leukemia, 276 nM; in the assay on NCI-H226 lung, 0.403 µM; in the assay with TK-10 renal it was 0.0864 µM. In addition, the TGI in the assay with OVCAR-8 ovarian is more than 100 µM; with SW-620 colon it was 2.28 µM; with SNB-75 CNS, more than 100 µM; in the assay with HCC-2998 colon, 0.442 µM; in the assay on NCI-H522 lung it was 3.75 µM; with SK-MEL-5 melanoma, 0.197 µM. For the same compound, the TGI in the assay on UACC-62 melanoma is 0.28 µM; with CCRF-CEM leukemia it was more than 100 µM; in the assay on NCI-H226 lung, 7.69 µM; with TK-10 renal, 1.35 µM.
Take `Cc1cc(=O)[nH]c(CNC(=O)c2cccc3ccccc23)n1`: the TGI in the assay on OVCAR-8 ovarian, in the assay on SW-620 colon, in the assay with SNB-75 CNS, with HCC-2998 colon, in the assay with NCI-H522 lung and in the assay with SK-MEL-5 melanoma was more than 100 µM each time. The TGI in the assay on UACC-62 melanoma, in the assay on CCRF-CEM leukemia, in the assay on NCI-H226 lung and with TK-10 renal was more than 100 µM in each case.
For the compound `S=C(Nc1ccc(-c2nc3ccccc3s2)cc1)Nc1ccccn1`, the GI50 with OVCAR-8 ovarian is 32.6 µM; with SW-620 colon it was 40.1 µM; in the assay with SNB-75 CNS, 12 µM; with HCC-2998 colon it was 21.9 µM; with NCI-H522 lung it was 24.7 µM; in the assay with SK-MEL-5 melanoma it was 17.2 µM. Besides, the GI50 is 21.4 µM in the assay on UACC-62 melanoma, 25500 nM in the assay with CCRF-CEM leukemia, 26.4 µM in the assay with NCI-H226 lung and 24.1 µM in the assay on TK-10 renal. For the same compound, the TGI in the assay on OVCAR-8 ovarian was more than 73.9 µM; in the assay with SW-620 colon, more than 100 µM; with SNB-75 CNS, more than 51.2 µM; in the assay with HCC-2998 colon, 60.2 µM; in the assay with NCI-H522 lung, more than 61.3 µM; with SK-MEL-5 melanoma, 36.2 µM. The TGI in the assay with UACC-62 melanoma was 57.3 µM; in the assay on CCRF-CEM leukemia, more than 100 µM; in the assay with NCI-H226 lung, more than 76.2 µM; in the assay on TK-10 renal, 70.2 µM.
With `Clc1cccc(Cn2cc(Cc3cn(Cc4cccc(Cl)c4)c4ccccc34)c3ccccc32)c1`, the GI50 with OVCAR-8 ovarian is more than 100 µM; in the assay with SW-620 colon it was more than 100 µM; with SNB-75 CNS, more than 100 µM; in the assay on HCC-2998 colon, more than 100 µM; with NCI-H522 lung, 45.5 µM; in the assay with SK-MEL-5 melanoma, more than 100 µM. Besides, the GI50 is more than 100 µM in the assay with UACC-62 melanoma, more than 100000 nM in the assay with CCRF-CEM leukemia, 10.1 µM in the assay with NCI-H226 lung and 92.6 µM in the assay with TK-10 renal. In addition, the TGI in the assay on OVCAR-8 ovarian, with SW-620 colon, in the assay on SNB-75 CNS, with HCC-2998 colon, in the assay on NCI-H522 lung and in the assay with SK-MEL-5 melanoma was more than 100 µM throughout. For the same compound, the TGI is more than 100 µM in the assay on UACC-62 melanoma, more than 100 µM in the assay with CCRF-CEM leukemia, 59 µM with NCI-H226 lung and more than 100 µM with TK-10 renal.
For `COC(=O)C1=C2C3=C(C(=O)c4ccccc4C3=O)N(Cc3ccccc3)C2(OC(C)=O)C=CC1=O` (centres undefined), the GI50 is 22.4 µM in the assay with OVCAR-8 ovarian; 17.2 µM with SW-620 colon; 40.3 µM with SNB-75 CNS; 4.67 µM in the assay on HCC-2998 colon; 5.56 µM in the assay with NCI-H522 lung; 10.2 µM with SK-MEL-5 melanoma. The values for the GI50 with UACC-62 melanoma, in the assay on CCRF-CEM leukemia and in the assay with NCI-H226 lung were 10.6 µM, 378 nM and 11.6 µM, respectively. Besides, the TGI in the assay on OVCAR-8 ovarian is 83 µM; in the assay with SW-620 colon, 94 µM; in the assay on SNB-75 CNS it was more than 100 µM; in the assay with HCC-2998 colon, 47.4 µM; in the assay on NCI-H522 lung, more than 100 µM; in the assay with SK-MEL-5 melanoma, 24.9 µM. In addition, the TGI with UACC-62 melanoma is 32.7 µM; in the assay with CCRF-CEM leukemia it was more than 100 µM; with NCI-H226 lung it was 32.6 µM; in the assay with TK-10 renal, 33.8 µM.
As to `COC(=O)C(=C\Sc1ccccc1)/C=C/C(=O)OC(C)(C)C`, the TGI was 31.2 µM in the assay on OVCAR-8 ovarian; 12.4 µM in the assay on SW-620 colon; 28.5 µM in the assay with SNB-75 CNS; 21.6 µM in the assay with HCC-2998 colon; 9.9 µM in the assay on NCI-H522 lung; 28.6 µM in the assay with SK-MEL-5 melanoma. Further, the TGI came out at 28.8 µM in the assay on UACC-62 melanoma, 5.35 µM with CCRF-CEM leukemia, 30.9 µM in the assay on NCI-H226 lung and 30.8 µM in the assay with TK-10 renal.
Consider `Nc1ccccc1C#Cc1ccccc1C#Cc1ccccc1N`, for which the GI50 in the assay on OVCAR-8 ovarian is 20.7 µM; with SW-620 colon it was 5.31 µM; with SNB-75 CNS, 23.7 µM; in the assay on HCC-2998 colon it was 14 µM; in the assay with NCI-H522 lung, 3.17 µM; in the assay with SK-MEL-5 melanoma it was 9.09 µM. Besides, the GI50 in the assay with UACC-62 melanoma was 6.93 µM; in the assay with CCRF-CEM leukemia, 3210 nM; in the assay with NCI-H226 lung it was 12.7 µM; in the assay with TK-10 renal, 4.17 µM. The TGI amounted to 49.4 µM in the assay with OVCAR-8 ovarian; 18.4 µM in the assay with SW-620 colon; 70.3 µM with SNB-75 CNS; 41 µM in the assay on HCC-2998 colon; 11.5 µM in the assay with NCI-H522 lung; 22.9 µM with SK-MEL-5 melanoma. Further, the TGI in the assay with UACC-62 melanoma worked out at 21.2 µM; with CCRF-CEM leukemia, 16.2 µM; with NCI-H226 lung, 31.1 µM; in the assay with TK-10 renal, 20 µM.
With `O=C1OCC2=C1C(c1cccc([N+](=O)[O-])c1)c1cc3c(cc1N2CCO)CCC3` (centres undefined), the GI50 in the assay on OVCAR-8 ovarian was 0.244 µM; with SW-620 colon it was 0.179 µM; in the assay with SNB-75 CNS, 0.0513 µM; in the assay with HCC-2998 colon it was 0.188 µM; in the assay on NCI-H522 lung, 0.0431 µM; with SK-MEL-5 melanoma, 0.127 µM. The GI50 in the assay with UACC-62 melanoma is 0.0298 µM; with CCRF-CEM leukemia, 216 nM; in the assay with NCI-H226 lung, 1.77 µM; in the assay with TK-10 renal it was 6.42 µM. Also, the TGI in the assay on OVCAR-8 ovarian is more than 50 µM; with SW-620 colon, more than 50 µM; in the assay on SNB-75 CNS it was 0.363 µM; in the assay on HCC-2998 colon, 9.58 µM; with NCI-H522 lung it was 6.3 µM; with SK-MEL-5 melanoma, 3.56 µM. Besides, the TGI is more than 24.8 µM with UACC-62 melanoma, more than 50 µM in the assay on CCRF-CEM leukemia, 49.4 µM in the assay with NCI-H226 lung and more than 50 µM in the assay with TK-10 renal.
